Key:
in vivo = settings: mouse, iv, read-out: LD50/24 hrs/kg body weight
[1] = tested on: carrageenin-induced edema; assay: Localised carrageenin-induced edema method (anti-inflammatory action); format: in vivo; settings: rats, oral 100 mg/kg (1 h before, with, 1 h and 2.5 h after)
Protocol: a. Localised Carrageenin-induced Edema Method A 1% carrageenin solution (1 ml) is injected in the metatarsal flexor muscles of the right hind paw of rats at time O. The animals of the treated lots are additionally administered orally 100 mg/kg of the test derivative, respectively one hour prior to and then simultaneously with the phlogogenic agent, and then one hour and 2.5 hrs thereafter. The percent anti-inflammatory activity with respect to the reference lot, as a function of time, is determined by measurements effected with a Roch micrometer at times O, one hour, two hours, three hours and five hours after carrageenin administration.

ovalbumin-induced edema = assay: Ovalbumin-induced systemic edema method (anti-inflammatory action); format: in vivo; settings: rats, oral 100 mg (1 h before and with ovalbumin)
Protocol: b. Ovalbumin-induced Systemic Edema Method Rats are administered a simultaneous intraperitoneal injection of 1 ml ovalbumin and 0.5 ml of a 1.[…]. aqueous Evans Blue solution. The animals of the treated lot are additionally administered orally 100 mg of the test derivative, one hour prior to ovalbumin administration and simultaneously with said ovalbumin administration. The intensity of the phenomenon thus induced is scored according to a scale from 1 to 5, according to the progress of the inflammatory syndrome. Thus are determined the mean intensity of the edema and the percent decrease of the edema reaction with respect to the control lot. Said percentage, for derivative No. 5, for example, is 62% after two hours and 70% after three hours.

blood plate aggregation = assay: Inhibitor action on blood plate aggregation induced by adenosine diphosphate (turbidimetric assay of serum from treated animals); format: in vivo; settings: rats, 100 mg/kg
Text: 2. Inhibitor Action on Blood Plate Aggregation
The normally cloudy blood plate rich serum of rats is made clear by addition of adenosine diphosphate which induces aggregation of the blood plates. […] Thus, the inhibitor action on blood plate aggregation of the test derivatives may be evaluated by means of a simple spectrophotometric turbidimetric assay.

[2] = Acute toxicity, LD50/24 hrs, intravenous, derivatives of formula (IV); settings: mouse, in vivo, mice, read-out: LD50/24 hrs/kg body weight
Text: It concerned the acute toxicity, the subacute toxicity, the chronic toxicity, the tolerance and the teratology of said derivatives.

**Q.** For `COc1cc(CN2CCc3sccc3C2)cc(OC)c1OC` [derivative 3, 5-(3,4,5-trimethoxy-benzyl)-4,5,6,7-tetrahydrothieno[3,2-c]pyridine], which LD50 at 24 h (in vivo) is on record?
**A.** 60 mg/kg

**Q.** Which “percent anti-inflammatory activity with respect to the reference lot” value (“percent anti-inflammatory activity” for short) ([1]; after five hours) does the source give for `Cl.Clc1ccc(CN2CCc3sccc3C2)cc1` [derivative 5, 5-parachlorobenzyl-4,5,6,7-tetrahydro-thieno-[3,2-c]pyridine hydrochloride] here?
**A.** 55%

**Q.** What about the “percent anti-inflammatory activity” value ([1]; after one hour) of the same compound?
**A.** 45%

**Q.** And the “percent anti-inflammatory activity” value ([1]; after three hours)?
**A.** 52%

**Q.** And the “percent anti-inflammatory activity” value ([1]; after two hours)?
**A.** 51%

**Q.** And the “percent decrease of the edema reaction with respect to the control lot” value (ovalbumin-induced edema; after three hours)?
**A.** 70%

**Q.** And the “percent decrease of the edema reaction with respect to the control lot” value (ovalbumin-induced edema; after two hours)?
**A.** 62%

**Q.** What about the “protection against blood plate aggregation” value (blood plate aggregation) of the same compound?
**A.** greater than 95%

**Q.** For `O=C(C[n+]1ccc2sccc2c1)c1ccccc1.[Br-]` [derivative No. 24, 5-phenacyl-thieno[3,2-c]pyridinium bromide], which LD50 at 24 h [2] is on record?
**A.** 19 mg/kg

**Q.** Which LD50 at 24 h [2] does the source give for `COc1ccccc1C(=O)C[n+]1ccc2sccc2c1` [derivative No. 25, 5-(O-Methoxy-Phenacyl)-Thieno[3,2-c]Pyridinium bromide] here?
**A.** 18 mg/kg

**Q.** With `O=C(C[n+]1ccc2sc(Cl)cc2c1)c1ccccc1.[Br-]` [derivative No. 26, 2-chloro-5-phenacyl-thieno[3,2-c]pyridinium bromide] as the compound, how does the LD50 at 24 h [2] read?
**A.** 38 mg/kg

**Q.** With `O=C(C[n+]1ccc2sccc2c1)c1ccc(Cl)cc1.[Br-]` [derivative No. 27, N-parachloro-phenacyl-thieno[3,2-c]pyridinium bromide] as the compound, how does the LD50 at 24 h [2] read?
**A.** 17.5 mg/kg

**Q.** Which LD50 at 24 h [2] does the source give for `O=C(C[n+]1ccc2sccc2c1)c1ccc(F)cc1.[Cl-]` [derivative No. 29, 5-para-fluoro-phenacyl-thieno[3,2-c]pyridinium chloride] here?
**A.** 16 mg/kg

**Q.** For `O=C(C[n+]1ccc2sccc2c1)c1ccc(O)cc1.[Cl-]` [derivative No. 30, N-(para-hydroxy-phenacyl)-thieno[3,2-c]pyridinium chloride], which LD50 at 24 h [2] is on record?
**A.** 25 mg/kg

**Q.** Which LD50 at 24 h [2] does the source give for `COc1ccc(C(=O)C[n+]2ccc3sccc3c2)cc1.[Br-]` [derivative No. 31, N-(para-methoxy-phenacyl)-thieno[3,2-c]pyridinium bromide] here?
**A.** 32 mg/kg

**Q.** For `COc1cccc(C(=O)C[n+]2ccc3sccc3c2)c1.[Br-]` [derivative No. 32, N-(meta-methoxy-phenacyl)-thieno[3,2-c]pyridinium bromide], which LD50 at 24 h [2] is on record?
**A.** 16 mg/kg
